{"source": "patent US8263526B2", "about": "“Compositions of keratin hydrolysate and microbes for pest control applications” (priority 2006, dated 2012)", "type_in_all_cases": "cell-based", "key": {"[1]": {"test_system": "blastospores of Paecilomyces fumosoroseus ARSEF 3581", "experiment": "% germination assay (6-hr) of blastospores in surfactant solutions", "protocol": "(§1) Blastospore suspensions (˜1×10^8 blastospores/ml) were prepared by adding 1.3 g of the dried blastospores of P. fumosoroseus formulate to 100 ml sterile deionized water. The spore suspension was stirred for 30 minutes, and then allowed to stand 1 minute to allow the diatomaceous earth to settle. Without disturbing the diatomaceous earth, 30 ml of the spore suspension was removed and transferred to a sterile bottle. The blastospore concentration of the suspension was measured using a hemacytometer.\nA one ml aliquot of the previously described blastospore suspension was added to 49 ml of the foaming agents in a 250 ml baffled Erlenmeyer flask. The blastospore suspensions were incubated in a rotary shaker incubator (Innova 4000, New Brunswick) at 300 RPM and 28° C. for 6 hours. Blastospore germination was measured by microscopic observation of the germ tube formation. Four slides were prepared from the incubated blastospore suspension using separate pipets. Germ tube formation was measured for 100 blastospores on each slide. A total of 400 blastospores were counted from each flask."}, "[2]": {"test_system": "blastospores of Paecilomyces fumosoroseus ARSEF 3581", "experiment": "Conidia production assay on water agar in the dark", "details": "2 weeks in the dark", "protocol": "For the conidia production assay, 100 ul of the blastospore suspension was spread onto WA plates (Water Agar: 20 g/L water.) and incubated 2 weeks in the dark. Three plates were used for each treatment. The drop was spread with a sterile plastic spreader and incubated at 23° C. in the dark for 2 weeks. After two weeks, 5 ml of sterile water was added to each plate, and a sterile loop was used to release the conidia from the fungal growth. The spore suspension was drawn up with a pipet and the volume measured. The conidia concentration was measured using a hemacytometer. Our previous determination of the blastospore concentration in the suspension applied to the […] plates was used to calculate conidia production/blastospore."}, "[3]": {"test_system": "blastospores of Paecilomyces fumosoroseus ARSEF 3581", "experiment": "Viability assay, CFU spread plate after 1 hour exposure to surfactant", "details": "in words", "protocol": "as §1\nFor these studies, 1 ml of the previously described blastospore suspension was added to 49 ml of the foaming agents and held for 1 hour at room temperature. After the one hour exposure period, colony forming units (cfu) were determined for blastospore suspensions using standard spread plating techniques. Appropriate dilutions of blastospore suspensions were spread on SDMA (Sabouraud dextrose maltose agar) plates, 10 g Bacto peptone, 20 g Difco dextrose, 20 g Sigma maltose, and 15 g Bacto agar per 1 L water. Three plates were used for each dilution. Plates were incubated at 28° C. for 2-3 days and CFUs counted."}}, "note": "Like-named read-outs stand apart in the source and are kept apart here."}
{"compound": "CCCCCCCCCCCCCCCC[N+](C)(C)C.[Br-]", "note": "[hexadecyl trimethylammonium Br, hexadecyl trimethylammonium bromide]", "values": [{"measurement": "% viability 6-hr germination", "setting": "[1]; surfactant 0.5% (w/w), 6 hours, 28° C.", "value": 0.0, "unit": "%"}]}
{"compound": "Triton x-100", "values": [{"measurement": "germination of blastospores relative to the water-only control", "setting": "[1]; 6-hr germination assay, in words", "value": "strongly inhibited"}, {"measurement": "conidia production (conidia/blastospore)", "setting": "[2]; surfactant 0.5% (w/w)", "value": 95, "unit": "conidia/blastospore"}, {"measurement": "conidia production (conidia/blastospore)", "setting": "[2]; surfactant 1.0% (w/w)", "value": 57, "unit": "conidia/blastospore"}, {"measurement": "conidia production (conidia/blastospore)", "setting": "[2]; surfactant 2.0% (w/w)", "value": 27, "unit": "conidia/blastospore"}, {"measurement": "cfu formation relative to the water control", "setting": "[3]", "value": "comparable or better cfu formation than the water control"}]}
{"compound": "sodium alpha olefin sulfonate [Na alpha olefin sulfonate]", "values": [{"measurement": "% viability 6-hr germination", "setting": "[1]", "value": 0.0, "unit": "%"}]}
{"compound": "sodium lauryl ether sulfate (2-mole) [Na Lauryl ether sulfate (2-mole)]", "values": [{"measurement": "% viability 6-hr germination", "setting": "[1]", "value": 0.0, "unit": "%"}]}
